Source: patent US8481495B2 (TetraLogic Pharmaceuticals Corporation, priority 2009, dated 2013)

How the values were obtained:
XIAP BIR-3 = target: T1, XIAP BIR-3 (Homo sapiens, UniProt P98170); experiment: Fluorescence polarization binding to XIAP BIR-3 with labeled peptide AbuRPF-K(5-Fam)-NH2; details: XIAP BIR-3, 40 nM BIR3, 5 nM labeled peptide, 15 min RT, pH 7.5; read-out: XIAP, nM (binding affinity KD, as range)
T1 construct: 40 nM of the respective IAP BIR3
Procedure, shortened: (§1)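 Competitive FP with 5 nM 5-Fam-labelled Smac-mimetic peptide and 40 nM IAP BIR3, 15 min at RT in 0.1 M potassium phosphate pH 7.5 with bovine γ-globulin. Polarization (mP) read at 485/520 nm; KD reported as ranges A–D (A <0.1 μM to D >10 μM).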

cIAP-1 BIR-3 = target: T2, cIAP-1 BIR-3 (Homo sapiens, UniProt Q13490); experiment: Fluorescence polarization binding to cIAP-1 BIR-3 with labeled peptide AbuRPF-K(5-Fam)-NH2; details: cIAP-1 BIR-3, 40 nM BIR3, 5 nM labeled peptide, 15 min RT, pH 7.5; read-out: cIAP1, nM (binding affinity KD, as range)
T2 construct: 40 nM of the respective IAP BIR3
Procedure, shortened: as §1

SK-OV-3 cells = experiment: MTT cell growth inhibition assay in ovarian cancer cell line SK-OV-3; assay type: cell-based; details: Homo sapiens, 72 hrs incubation, read-out: SKOV3, nM (CC50, concentration giving 50% cell survival, as range)
Procedure, shortened: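 SK-OV-3 cells (5,000 per well, McCoy's medium with 10% FBS) exposed to compounds at 0.003-10 μM for 72 h at 37°C, followed by MTT for 3 h, DMSO solubilisation and OD at 535 nm. CC50 is the concentration giving 50% survival relative to control wells, reported in ranges (A <0.1 μM to D >10 μM).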

T1 sequence (P98170 241-356 limits assumed): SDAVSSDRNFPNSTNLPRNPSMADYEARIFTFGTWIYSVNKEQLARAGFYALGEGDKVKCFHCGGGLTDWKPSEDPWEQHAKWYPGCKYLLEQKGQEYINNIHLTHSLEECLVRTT
T2 sequence (Q13490 253-363 limits assumed): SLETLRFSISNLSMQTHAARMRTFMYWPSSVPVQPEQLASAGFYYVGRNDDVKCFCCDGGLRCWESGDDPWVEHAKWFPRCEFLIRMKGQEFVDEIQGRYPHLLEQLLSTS

SMILES	Kd (XIAP BIR-3)	Kd (cIAP-1 BIR-3)	CC50 (SK-OV-3 cells)
CN[C@@H](C)C(=O)N[C@H](C(=O)N1CC[C@@H]2[C@H]1[C@@H](C(=O)Nc1cccc3ccccc13)CN2C(=O)CNC(=O)C(=O)NCC(=O)N1C[C@H](C(=O)Nc2cccc3ccccc23)[C@@H]2[C@H]1CCN2C(=O)[C@@H](NC(=O)[C@H](C)NC)C(C)(C)C)C(C)(C)C [Example 53, N,N′-Bis-{2-[4-[3,3-dimethyl-2-(2-methylamino-propionylamino)-butyryl]-3-(naphthalen-1-ylcarbamoyl)-hexahydro-pyrrolo[3,2-b]pyrrol-1-yl]-2-oxo-ethyl}-oxalamide]	< 100 nM	< 100 nM	< 100 nM
CN[C@@H](C)C(=O)N[C@H](C(=O)N1CC[C@@H]2[C@H]1[C@@H](C(=O)Nc1cccc3ccccc13)CN2S(C)(=O)=O)C(C)(C)C [Example 24, 4-[3,3-Dimethyl-2-(2-methylamino-propionylamino)-butyryl]-1-methanesulfonyl-octahydro-pyrrolo[3,2-b]pyrrole-3-carboxylic acid naphthalen-1-ylamide]	< 100 nM	< 100 nM	< 100 nM
CN[C@@H](C)C(=O)N[C@H](C(=O)N1CC[C@@H]2[C@H]1[C@@H](C(=O)N[C@@H]1CCc3ccccc31)CN2S(C)(=O)=O)C1CCCCC1 [Example 14, 4-[2-Cyclohexyl-2-(2-methylamino-propionylamino)-acetyl]-1-methanesulfonyl-octahydro-pyrrolo[3,2-b]pyrrole-3-carboxylic acid indan-1-ylamide]	100 to 1000 nM	< 100 nM	< 100 nM
CN[C@@H](C)C(=O)N[C@H](C(=O)N1CC[C@H]2NC[C@@H](C(=O)Nc3ccccc3)[C@H]21)C1CCCCC1 [Example 32]	100 to 1000 nM	< 100 nM	1000 to 10000 nM
CN[C@@H](C)C(=O)N[C@H](C(=O)N1CC[C@@H]2[C@H]1[C@@H](C(=O)Nc1ccc(F)cc1)CN2C(=O)CNC(=O)C(=O)NCC(=O)N1C[C@H](C(=O)Nc2ccc(F)cc2)[C@@H]2[C@H]1CCN2C(=O)[C@@H](NC(=O)[C@H](C)NC)C(C)(C)C)C(C)(C)C [Example 54, N,N′-Bis-{2-[4-[3,3-dimethyl-2-(2-methylamino-propionylamino)-butyryl]-3-(4-fluoro-phenylcarbamoyl)-hexahydro-pyrrolo[3,2-b]pyrrol-1-yl]-2-oxo-ethyl}-oxalamide]	< 100 nM	< 100 nM	< 100 nM
CN[C@@H](C)C(=O)N[C@H](C(=O)N1CC[C@@H]2[C@H]1[C@@H](C(=O)NC1CCCCC1)CN2S(C)(=O)=O)C1CCCCC1 [Example 5, 4-[2-Cyclohexyl-2-(2-methylamino-propionylamino)-acetyl]-1-methanesulfonyl-octahydro-pyrrolo[3,2-b]pyrrole-3-carboxylic acid cyclohexylamide]	1000 to 10000 nM	< 100 nM	1000 to 10000 nM
CN[C@@H](C)C(=O)N[C@H](C(=O)N1CC[C@@H]2[C@H]1[C@@H](C(=O)N[C@H]1CCc3ccccc31)CN2S(C)(=O)=O)C1CCCCC1 [Example 12, 4-[2-Cyclohexyl-2-(2-methylamino-propionylamino)-acetyl]-1-methanesulfonyl-octahydro-pyrrolo[3,2-b]pyrrole-3-carboxylic acid indan-1-ylamide]	100 to 1000 nM	< 100 nM	100 to 1000 nM
CN[C@@H](C)C(=O)N[C@H](C(=O)N1CC[C@@H]2[C@H]1[C@@H](C(=O)NC(c1ccccc1)c1ccccc1)CN2S(C)(=O)=O)C1CCCCC1 [Example 6, 4-[2-Cyclohexyl-2-(2-methylamino-propionylamino)-acetyl]-1-methanesulfonyl-octahydro-pyrrolo[3,2-b]pyrrole-3-carboxylic acid benzhydryl-amide]	< 100 nM	< 100 nM	100 to 1000 nM
